The values that follow come from patent US20210275543A1, “METHODS FOR THE TREATMENT OF MITOCHONDRIAL GENETIC DISEASES” (NSERM (INSTITUT NATIONAL DE LA SANTÉ ET DE LA RECHERCHE …, priority 2017, published 2021).

The subject of one assay is Ndufs4−/− mice. Briefly: PIK3CA inhibition in Ndufs4 knockout mouse model of Leigh syndrome (survival). In kind it is in vivo. The note with it: 50 mg·kg-1 daily p.o. The text has this:
Leigh Syndrome is a severe mitochondrial disease that occurs in about 1:40,000 newborns and is associated with retarded growth, muscular deficits including myopathy and dyspnea, lactic acidosis, and a characteristic progressive necrotizing encephalopathy of the vestibular nuclei, cerebellum, and olfactory bulb (Budde et al., 2002). Ndufs4 encodes a subunit of Complex I of the mitochondrial electron transport chain; mutations in the NDUFS4 gene cause LS in humans (Budde et al., 2000), and the Ndufs4 knockout mouse is a murine model of LS (Kruse et al., 2008). Ndufs4−/− mice have decreased Complex I levels and activity in multiple tissues and show severe and progressive symptoms of mitochondrial disease that mirror human LS. LS results in death at an average of […] in humans, and Ndufs4 KO mice show a similar early-life mortality with an average lifespan of just 60 days. Heterozygous Ndufs4 knockout mice on a C57Bl/6NIA background were bred to produce homozygous KO animals. Animals were fed ad libitum and housed at a constant ambient temperature in a 12-hour light cycle. Animal procedures were approved by the “Services Vétérinaires de la Prefecture de Police de Paris” Departmental Director and by the ethical committee of the Paris Descartes University.
At the age of 21 days, Ndufs4−/− mice were treated with the PI3KCA inhibitor, BYL719 (MedChem Express; 50 mg·kg-1 in 0.5% carboxymethylcellulose (Sigma Aldrich), daily p.o.) (n=9) or vehicle (0.5% carboxymethylcellulose (Sigma Aldrich), daily p.o.) (n=8).

For assay [1], the system named is phosphorylated ribosomal protein S6 (mTORC1 signaling). Nature of the assay: Analysis of S6 phosphorylation by western blotting in primary dermal fibroblasts. In kind it is cell-based, human. To be noted: for S6 phosphorylation (phosphorylated ribosomal protein S6 vs total rpS6, GAPDH): 48 hours of treatment, 5 μmol/L BYL719. Here is the method: (§1) Punch skin biopsies were collected using standard methods.
(§2) To generate dermal fibroblast cultures, biopsies were minced and incubated at room temperature in 0.05% trypsin-EDTA (ThermoFisher 25300054) solution for 30 min with gentle shaking. Cells were collected by centrifuging at 700 g for 10 min, re-suspended in cell culture media containing 25% FBS, and plated onto 24 well plates to establish lines. Fibroblast cultures were grown and maintained in 1×MEM (Corning 10-010-CV) supplemented with 25% FBS and penicillin/streptomycin (Corning 30-001-CI) to a final concentration of 100 IU penicillin and 500 μg/mL streptomycin.
Cells at similar population doubling (PD-10+/−2) were plated 1:4 from confluent cultures and allowed to grow until ˜80% confluent. Media was replaced with media containing 5 μmol/L BYL719 (Chem Express) in DMSO or equal volume DMSO for 48 hours. Cultures were rinsed with 1×PBS, treated for 10 min with 0.05% Trypsin, collected by centrifugation at 4° C., and pellets were flash frozen on dry ice. Protein lysates were collected by directly adding 1×RIPA buffer (Pierce 89900) containing protease and phosphatase inhibitors (Pierce PI78441) to cell pellets, sonicating in 10 one-second bursts, on ice, with an XL-2000 QSonica at maximum output, and centrifuging to remove cell debris. Protein concentration was determined by BCA assay (Pierce PI23228), equal protein run on 4-12% bis-tris 26 well NuPage midigels (Fisher WG1403), and transferred to nitrocellulose blots (Fisher IB23001). Blots were blocked in LICOR Odyssey blocking buffer (LICOR 427-40100), probed with primary antibodies anti-pS6, anti-S6, and anti-GAPDH (Cell Signaling 4858P, 2217S, and 2118S, respectively) followed by secondary antibody IRDye800 donkey anti-rabbit (LICOR 925-32213) and imaged using LICOR Odyssey Clx scanning imager as previously described^9. Data quantified using NIH ImageJ^11.

Assay [2] relates to primary dermal fibroblasts from patients with mitochondrial disorders and controls. Nature of the assay: Analysis of mitochondrial membrane potential and morphology (TMRE / 10-NAO staining, confocal microscopy and flow cytometry). It counts as cell-based, human. Here is the method: as §1, §2
Cells at similar population doubling (PD-10+/−2) were plated 1:4 from confluent cultures onto coverglass chamberslides and allowed to grow until ˜80% confluent. Media was replaced and supplemented with […] BYL719 (Chem Express) in DMSO (Fisher BP321-1), or equal volume DMSO, for 48 hours. Cells were stained for 15 min in media with 100 nM tetramethylrhodamine ethyl ester (TMRE, Fisher BDB564696) and 5 μg/mL Hoechst 33342 (Biotium 89139-126) and imaged on a Leica SP5 confocal microscope. Samples were treated and imaged in one session using identical imaging parameters. Flow cytometry analysis was performed by staining cells with only TMRE or 10-N-nonyl acridine orange (10-NAO), dissociating with trypsin-EDTA containing dye for 10 min at room temperature, collecting cells by centrifugation, resuspension in cold PBS, and analysis on a BD Canto II flow cytometer using 488 nm excitation with 585/42 BP and 530/30 BP filters for TMRE and 10-NAO, respectively. A single gate was set to cells using forward and side scatter and all settings unchanged throughout data collection. 10,000 or more events were collected for every sample.

[3] abbreviates: primary MELAS patient and control fibroblast lines, FIG. 1A.

For the compound `Cc1nc(NC(=O)N2CCC[C@H]2C(N)=O)sc1-c1ccnc(C(C)(C)C(F)(F)F)c1` [BYL719, Alpelisib], the animal survival result with Ndufs4−/− mice (Ndufs4−/− mice treated from age 21 days, vs vehicle, FIG. 2) is listed as “dramatically improved animal survival”. In addition, in the assay on Ndufs4−/− mice (Ndufs4−/− mice, 120 days later), the “appearance of treated animals” value is recorded as “overtly normal appearance”. For the same compound, the time alive in the assay with Ndufs4−/− mice (Ndufs4−/− mice, all placebo-treated mice died within 80 days) was ≥ 120 days. Besides, the pS6 levels result in assay [1] (all cell lines (patients with mitochondrial disorders and controls), 48 hours, FIGS. 1A and 1B) was “reduced pS6 levels in all cell lines”. The “S6 phosphorylation (phosphorylated ribosomal protein S6 vs total rpS6, GAPDH)” value in assay [1] (other mitochondrial disorders and control fibroblast lines, FIG. 1B) is given as “inhibited S6 phosphorylation”; in assay [1] (setting [3]), “inhibited S6 phosphorylation”. Moreover, the “mitochondrial membrane potential (TMRE staining intensity) and morphology (fragmentation, depolarized mitochondria)” value in assay [2] (MELAS fibroblasts, 48 hours, confocal microscopy, FIG. 1C) was “attenuated these phenotypes in all MELAS fibroblasts”. In addition, in assay [2] (MELAS fibroblasts, flow cytometry, data not shown), the “membrane potential (TMRE) by flow cytometry” value was “rescue”. The “mitochondrial membrane potential (TMRE staining intensity) and morphology” value in assay [2] (control cells, 48 hours, confocal microscopy, FIG. 1C) was “no overt impact”.
As for cyclosporin A, the “S6 phosphorylation (phosphorylated ribosomal protein S6 vs total rpS6, GAPDH)” value in assay [1] (setting [3]) is “no significant impact”.
